Assay results published in a melting point compilation (Tetko et al.; mined from patent text by program, amines drawn as free bases though some values may be those of a salt).

| Compound | melting point [°C] |
| --- | --- |
| CC(=O)Nc1ccc(OC(C)CN2CCN(CCc3ccc(C(=O)O)cc3)CC2)cc1 (stereo not drawn) | 234 to 235 |
| COc1cc(NC(=O)CC#N)c(Cl)cc1Cl | 180 to 181 |
| O=[N+]([O-])c1ccc2c(c1)Sc1cc(OCCF)ccc1N2 | 189 to 191 |
| O=C(NCCN(C1CC1)S(=O)(=O)c1ccccc1[N+](=O)[O-])N1CCN2C(=O)OC(c3cccc(F)c3)(c3cccc(F)c3)C2C1 (stereo not drawn) | 203 |
| CC(C)c1nn(-c2ccc(C(F)(F)F)cn2)cc1CCCCOc1nn(-c2ccccc2)cc1CC(=O)O | 119 to 120 |
| CCCCc1ccc(C(=O)O)cc1C12CC3CC(CC(C3)C1)C2 | 209 to 210 |
| O=CN(O)CCCP1(=O)ON2CCN(O1)OP(=O)(CCCN(O)C=O)O2 (stereo not drawn) | 112 to 118 |
| Cc1nc(-c2c(F)cccc2F)n[nH]1 | 195 to 198 |
| COC(=O)c1cc[nH]c1 | 78 to 81 |
| Cc1ccc(-c2ncc3c(n2)CCCC3)nc1-c1ccc(C=O)cc1 | 151 to 154 |
| CC(=O)Oc1c(C(C)(C)C)cc(CCCO)cc1C(C)(C)C | 93 to 95 |
| NS(=O)(=O)c1ccc(NN=C2C(=O)Nc3cccc(Oc4ccccc4)c32)cc1 | > 250 |
| CN(Cc1ccc(NC(=O)C2=Cc3cc(-c4ccc(C(C)(C)C)cc4)ccc3OCC2)cc1)C1CCOCC1 | 193 to 194 |
| COC(=O)c1ccc(OCCNC(=O)C2Cc3ccccc3N2S(=O)(=O)c2ccc(-c3ccc(F)cc3)cc2)c(F)c1 (stereo not drawn) | 82 to 87 |
| COC(=O)c1ccc(-c2cccc(OC)c2)nc1 | 89.5 to 90 |
| CCOC(=O)c1cnn(C)c1C(=O)Nc1ccn2nc(N3CCCC3)nc2c1 | 233 to 234 |
| CCCn1c(=O)c(-c2ccccc2)c2n(c1=O)CC=CS2 | 142 to 144 |
| COc1ccc(F)cc1OCCNCCCc1c[nH]c2ccc(F)cc12 | 119 to 122 |
| CS(=O)(=O)c1cccc(-c2ccccc2[N+](=O)[O-])c1 | 124 to 125 |
| O=C(O)/C=C/n1cnc2ccc(OCCO)cc2c1=O | 247 to 248 |
| O=C1c2ccccc2COc2ccc(CCCCl)cc21 | 69 to 72 |
| CCOC(=O)CC(=O)c1cc2cc(F)c(Cl)cc2nc1Cl | 112 to 114 |
| S=C1Nc2ccc(Cl)cc2CS1 | 217 to 222 |
| CCCCCCCCCCCCCCCC(=O)OCCCCN | 59 to 61 |
| N#Cc1cnn2c(-c3ccncc3)ccnc12 | 137 to 138 |

| Compound | melting point [°C] |
| --- | --- |
| CN(C)CCC1=Cc2ccccc2N(C)c2ccccc21 | 78 |
| CN(Cc1ccc2c(Br)c(O)ccc2c1)C(=O)c1cn(C)c2ccccc12 | 189 to 190 |
| CN1CCN(C2(CNC(=O)c3ccc(Cl)c(Cl)c3)CCCCC2)CC1 | 143 to 146 |
| O=C(COc1ccc(Cl)cc1)c1ccc(Br)s1 | 128 to 130 |
| N#Cc1cc(-c2cc(C(F)F)c3c(-c4cccnc4)n[nH]c3n2)ccc1N | 296 |
| COC(=O)c1ccc(CSC)nc1C1=NC(C)(C(C)C)C(=O)N1 (stereo not drawn) | 114 to 115 |
| C=Cc1cnc(-c2ccccn2)nc1 | 103 |
| COc1ccc(Br)cc1C12CC3CC(CC(C3)C1)C2 | 138 to 139 |
| CCCCN1CCC(CNC(=O)c2ccc(N)n3c(Cl)c(CC)nc23)CC1 | 86 to 90 |
| COc1cc2c(cc1Nc1ncc(Cl)c(Nc3ccccc3S(=O)(=O)N3CCCC3)n1)NC(=O)CN(CC1CC1)C2 | 142 |
| O=[N+]([O-])c1cc2nc(O)c(O)nc2c2c1CCCC2 | > 300 |
| O=C(NCCCCN1C2CCC1CN(c1ccc(Cl)cc1)C2)C(F)(F)F | 83 to 85 |
| Cc1csc(=S)n1-c1ccc(F)cc1N | 138 |
| Cc1nc(OCc2c(C(C)C)nnn2-c2c(Cl)cccc2Cl)ccc1N(C)S(=O)(=O)c1ccc(C(=O)O)cc1 | 128 to 129 |
| CC(=O)C1=Cc2cc(Cl)cc(C)c2OC1 | 78 to 79 |
| CC(C)[C@H](N=Cc1cccc(-c2ccccc2)c1O)C(=O)O | 140 to 141 |
| CN(C)CCON=C1c2ccccc2C2CC2c2ccccc21 (stereo not drawn) | 69 to 70 |
| O=C1N(CCCCN2CCN(C3=NS(=O)(=O)c4ccccc43)CC2)CSC12CCCC2 | 137 to 140 |
| CS(=O)c1nc2cc(Oc3ccc(Cl)cc3Cl)c(Cl)cc2[nH]1 (stereo not drawn) | 206 to 208 |
| O=C(c1ccc([N+](=O)[O-])cc1)N1Cc2ccccc2Cc2cc(Cl)ccc21 | 198 to 201 |
| CC(C)(C)NCC(O)COc1ccc(-c2nc(C(N)=O)c[nH]2)cc1 (stereo not drawn) | 149 to 154 |
| O=C(O)c1cc2cc([N+](=O)[O-])cc(O)c2o1 | 294 |
| CCCC1=C(C(=O)OCC)C(c2cccc(C)c2Cl)c2c[nH]nc2N1 (stereo not drawn) | 198 to 200 |
| c1ccc(-c2cccn3cnnc23)nc1 | 212 to 214 |
| O=C(NNC(=O)c1c(F)c(F)c(F)c(F)c1F)c1cc(Cl)ccc1Cl | 227 to 232 |

| Compound | melting point [°C] |
| --- | --- |
| Cc1cc(C)n(-c2nc(Nc3ccccc3C)c3ccccc3n2)n1 | 240 to 244 |
| CCCNC(=O)N1N=C(c2ccc([N+](=O)[O-])cc2)c2cc(Cl)ccc2CC1C (stereo not drawn) | 186 to 187 |
| CCCCCCc1ccc(C=Cc2cc3cc4ccccc4cc3s2)cc1 | 300 to 302 |
| COCc1ccc(-c2cn(-c3cc(C(=O)OC)c(NO)cc3C(F)(F)F)cn2)cc1 | 252 to 257 |
| CCOC(=O)C1=CC(C(=O)c2ccccc2O)=CN2CCc3c([nH]c4ccccc34)C12C(=O)OCC (stereo not drawn) | 209 |
| Cc1ccccc1-c1c(CC(=O)O)c(=O)oc2ccc(Cl)cc12 | 180 to 183 |
| CCS(=O)(=O)NCCCCn1c(C)nc2c(N)nc3ccccc3c21 | 211 to 212 |
| CC(C)C(=O)OC1C(n2ccc(N)nc2=O)OC(COC(=O)c2ccc(Cl)cc2)C1(C#C[Si](C)(C)C)OC(=O)C(C)C (stereo not drawn) | 97 to 99 |
| CN(CCC(Oc1ccc(C(F)(F)F)cc1)c1ccccc1)Cc1ccccc1 (stereo not drawn) | 42 to 44 |
| CCCCc1oc2ccccc2c1C(O)c1ccc(O)cc1 (stereo not drawn) | 94 to 96 |
| CCCc1c(O)c(C(C)=O)cc2c(=O)cc(C(=O)OC)n(CC)c12 | 121 to 123 |
| CCCN1CC(C(=O)OC)CC2c3cccc4[nH]cc(c34)CC21 (stereo not drawn) | 202 to 204 |
| CC(=O)N1CCN(NC(=O)c2ccc(F)cc2)CC1 | 209 to 210 |
| Cc1ccc(C)c(NC(=O)NCC2(c3ccccc3)CCCCC2)c1 | 202 to 203 |
| COCc1nc2c(N)nc3c(c2n1CC(C)(C)OCCS(C)(=O)=O)CCCC3 | 195 to 197 |
| Cn1c(C(F)(F)F)cc(=O)[nH]c1=O | 140 to 142 |
| CCOC(=O)CCc1cn(-c2ccccc2)nc1OCc1ccccc1 | 123 to 124 |
| COc1cc(N)cc(C)c1OCCCN1CCN(c2cccc3sccc23)CC1 | 155 to 158 |
| CCCNNC(=O)c1cnc(N(CC)Cc2cc(Br)ccc2OCc2ccccc2)s1 | 163 |
| COc1cc(Nc2c(C#N)cnc3cc(/C=C/CN4CCOCC4)c(OC)cc23)c(Cl)cc1Cl | 105 to 106 |
| C[C@@H]1CCC[C@H](C)N1CCNC(=O)CN1CCCC1=O | 93 to 94.5 |
| CNC(=O)N1c2ccccc2CC1C (stereo not drawn) | 158 to 160 |
| O=C1c2ccsc2CCN1Cc1ccccc1 | 54 |
